Experiments:
Conditions in all cases: stereoisomer not certain
[1] = RP, 100 × 0.5 mm, 2.7 µm, 45 °C, 0.015 mL/min, estimated dead time 0.83 min; A: water + 0.9% formic acid; B: acetonitrile + 0.9% formic acid; gradient (min/%B) 0/1 0.5/1 4/95 4.5/1 5/1
[2] = RP, 50 × 0.5 mm, 2.7 µm, 35 °C, 0.01 mL/min, estimated dead time 0.62 min; A: water + 0.1% formic acid, pH 3; B: acetonitrile + 0.1% formic acid, pH 3; gradient (min/%B) 0/5 12/95 14/95 16/5
[3] = RP, Phenomenex Synergi Hydro-RP, 150 × 2 mm, 4 µm, 30 °C, 0.5 mL/min, estimated dead time 0.6 min; A: water + 0.1% formic acid, pH 3; B: acetonitrile + 0.1% formic acid, pH 3; gradient (min/%B) 0/5 1/5 35/45 40/100 45/100
[4] = RP, Phenomenex Luna Omega Polar C18, 100 × 2.1 mm, 1.6 µm, 40 °C, 0.5 mL/min, estimated dead time 0.44 min; A: water + 0.5% formic acid; B: acetonitrile + 0.5% formic acid; gradient (min/%B) 0/5 3/50 3.1/100 5/100 5.1/5 7/5
[5] = RP, Phenomenex Luna C18, 150 × 4.6 mm, 3 µm, 25 °C, 0.5 mL/min, estimated dead time 3.2 min; A: water + 0.1% formic acid, pH 3; B: acetonitrile + 0.1% formic acid, pH 3; gradient (min/%B) 0/0 30/30 35/40 50/80 52/80 60/0 65/0
[6] = RP, Phenomenex Luna Omega Polar C18, 100 × 2.1 mm, 1.6 µm, 40 °C, 0.5 mL/min, estimated dead time 0.44 min; A: water + 0.1% formic acid + 10 mM ammonium formate; B: acetonitrile; gradient (min/%B) 0/5 8/20 10/100 12/100 12.1/5 14/5
[7] = RP, Waters ACQUITY UPLC HSS T3, 100 × 2.1 mm, 1.8 µm, 30 °C, 0.4 mL/min, estimated dead time 0.55 min; A: water + 0.1% formic acid, pH 3; B: acetonitrile + 0.1% formic acid, pH 3; gradient (min/%B) 0/0 2/0 15/100 22/100 22.1/0 26/0
[8] = RP, Agilent ZORBAX Eclipse XDB-C18, 100 × 2.1 mm, 1.8 µm, 50 °C, 0.4 mL/min, estimated dead time 0.55 min; A: water + 0.1% formic acid, pH 3; B: methanol + 0.1% formic acid, pH 3; gradient (min/%B) 0/2 10/100 14.5/100 14.51/2 16.5/2
[9] = RP, Waters ACQUITY UPLC BEH Shield RP18, 100 × 2.1 mm, 1.7 µm, 30 °C, 0.6 mL/min, estimated dead time 0.37 min; A: water + 0.1% formic acid, pH 3; B: acetonitrile + 0.1% formic acid, pH 3; gradient (min/%B) 0/0 2/0 7/10 22/95 22.1/0 26/0
[10] = RP, Waters ACQUITY UPLC BEH Shield RP18, 150 × 2.1 mm, 1.7 µm, 40 °C, 0.4 mL/min, estimated dead time 0.83 min; A: water + 0.1% formic acid, pH 3; B: acetonitrile + 0.1% formic acid, pH 3; gradient (min/%B) 0/0 30/50 31/100 37/100 37.1/0
[11] = RP, Agilent InfinityLab Poroshell 120 EC-C18, 100 × 3 mm, 2.7 µm, 25 °C, 0.4 mL/min, estimated dead time 1.1 min; A: water + 0.1% formic acid, pH 3; B: acetonitrile + 0.1% formic acid, pH 3; gradient (min/%B) 0/5 10/25 20/40 24/90 25/90 26/5 30/5
[12] = Other, Phenomenex Kinetex PFP, 100 × 4.6 mm, 5 µm, 45 °C, 0.6 mL/min, estimated dead time 1.8 min; A: water + 0.1% trifluoroacetic acid, pH 2; B: methanol; gradient (min/%B) 0/40 20/72 21/40
[13] = RP, Merck LiChrospher RP-18, 250 × 4 mm, 5 µm, 35 °C, 0.3 mL/min, estimated dead time 6.7 min; A: water + 0.5% formic acid; B: acetonitrile + 0.5% formic acid; gradient (min/%B) 0/5 10/5 30/15 45/20 65/20 95/54 110/63 115/5 135/5
[14] = RP, Waters ACQUITY UPLC BEH C18, 100 × 2.1 mm, 1.7 µm, 65 °C, 0.4 mL/min, estimated dead time 0.55 min; A: water + 0.1% formic acid, pH 3; B: 80% acetonitrile + 20% acetone + 0.1% formic acid, pH 3; gradient (min/%B) 0/0 5/100 5.5/0 6/0
[15] = RP, Agilent ZORBAX RRHD Eclipse Plus C18, 50 × 2.1 mm, 1.8 µm, 30 °C, 0.4 mL/min, estimated dead time 0.28 min; A: water + 0.1% formic acid, pH 3; B: acetonitrile + 0.1% formic acid, pH 3; gradient (min/%B) 0/1 5/10 8/25 9.1/99 10/99 12/1
[16] = RP, Agilent ZORBAX RRHD Eclipse Plus C18, 50 × 2.1 mm, 1.8 µm, 30 °C, 0.4 mL/min, estimated dead time 0.28 min; A: water + 0.1% formic acid, pH 3; B: acetonitrile + 0.1% formic acid, pH 3; gradient (min/%B) 0/1 5/10 8/25 9.1/99 10/99 12/99
[17] = RP, Merck Supelco SUPELCOSIL LC-C18, 250 × 4.6 mm, 5 µm, 40 °C, 1 mL/min, estimated dead time 2.6 min; A: water + 0.1% trifluoroacetic acid, pH 2; B: acetonitrile + 0.1% trifluoroacetic acid, pH 2; gradient (min/%B) 0/5 45/35 47/75 49/35 50/5
[18] = RP, Phenomenex Synergi Hydro-RP, 250 × 2 mm, 4 µm, 25 °C, 0.2 mL/min, estimated dead time 2.5 min; A: water + 0.1% formic acid, pH 3; B: acetonitrile + 0.1% formic acid, pH 3; gradient (min/%B) 0/0.5 7/0.5 12/12.5 25/16.3 47/35 48/65 50/65 50.1/0.5
[19] = RP, Waters Atlantis T3, 100 × 2.1 mm, 3 µm, 40 °C, 0.3 mL/min, estimated dead time 0.73 min; A: water + 0.1% trifluoroacetic acid, pH 2; B: acetonitrile + 0.1% trifluoroacetic acid, pH 2; gradient (min/%B) 0/10 1/10 6/40 7/50 8/50 14/70 16/80 20/10 25/10
[20] = RP, Waters ACQUITY UPLC HSS T3, 100 × 2.1 mm, 50 °C; A: water + 0.1% formic acid, pH 3; B: 30% methanol + 70% acetonitrile + 0.1% formic acid, pH 3; gradient (min/%B) 0/5 1/8 2/15 3/40 4/70 4.5/100 5/100 6.4/100 6.6/5 6.8/5 7/5
[21] = RP, Phenomenex Kinetex EVO C18, 100 × 2.1 mm, 2.6 µm, 40 °C, 0.4 mL/min, estimated dead time 0.55 min; A: water + 0.2% formic acid; B: acetonitrile + 0.2% formic acid; gradient (min/%B) 0/5 0.5/5 7/95 8/95 8.5/5 12/5

Row | SMILES | LC retention time [1] | LC retention time [2] | LC retention time [3] | LC retention time [4] | LC retention time [5] | LC retention time [6] | LC retention time [7] | LC retention time [8] | LC retention time [9] | LC retention time [10] | LC retention time [11] | LC retention time [14] | LC retention time [15] | other results
1 | O=c1ccc2c(O)c3ccoc3cc2o1 [Bergaptol] | 3.08 min | 5.42 min | 21.6 min | 3.25 min | 37.6 min | 9.43 min | 11 min | 6.04 min | 14.7 min | 17.9 min | 13.9 min | – | – | –
2 | COc1ccc(C(=O)O)cc1OC [Veratric acid] | 2.4 min | 4.19 min | – | – | 24.9 min | 6.87 min | 9.65 min | 4.84 min | 12 min | – | 9.51 min | – | – | LC retention time [18]: 33 min
3 | CC12CCc3occc3C1CCC13CC(CCC12)C(O)(CO)C3 (centres undefined) [Cafestol] | 4.04 min | 8.2 min | 37.9 min | 2.42 min | 50 min | – | 13.9 min | 9.33 min | 17.5 min | – | – | 3.19 min | – | –
4 | C[n+]1cccc(C(=O)[O-])c1 [Trigonelline] | 2.72 min | 0.771 min | – | 0.58 min | – | – | 0.96 min | – | 0.62 min | 1.03 min | – | – | – | –
5 | O=S(=O)(O)Oc1c(O)cccc1O [Pyrogallol 2-O-sulfate] | 2.2 min | 1.4 min | – | 1.49 min | 18.4 min | 1.61 min | 6.13 min | 1.76 min | – | 7.61 min | 3.99 min | – | 2.36 min | LC retention time [16]: 1.34 min

Now from value to compound, other results behind:

Row | LC retention time [1] | LC retention time [2] | LC retention time [3] | LC retention time [4] | LC retention time [5] | LC retention time [6] | LC retention time [7] | LC retention time [8] | LC retention time [9] | LC retention time [10] | LC retention time [11] | LC retention time [14] | LC retention time [15] | SMILES | other results
6 | – | 3.38 min | – | 1.81 min | 12.3 min | 3.49 min | 8.02 min | 3.27 min | 11 min | 7.05 min | 5.48 min | 1.64 min | 5.31 min | O=C(C=Cc1ccc(O)c(O)c1)OC1CC(O)(C(=O)O)CC(O)C1O (centres undefined) [Chlorogenic acid] | LC retention time [12]: 4.03 min; LC retention time [13]: 41.1 min; LC retention time [16]: 4.49 min; LC retention time [17]: 13.8 min; LC retention time [18]: 20 min; LC retention time [19]: 3.17 min
7 | 2.05 min | 1.77 min | – | 1.45 min | 6.29 min | – | 7.1 min | 2.49 min | 4.4 min | 2.67 min | 3.25 min | 1.39 min | – | Cn1cnc2c1c(=O)[nH]c(=O)n2C [Theobromine] | LC retention time [20]: 2.12 min
8 | 2.53 min | 4.38 min | 16 min | 2.41 min | 24.4 min | 8.12 min | 9.38 min | 4.3 min | 13.1 min | – | 9.7 min | – | 8.05 min | Oc1cc(O)c2c(c1)OC1(c3ccc(O)c(O)c3)Oc3cc(O)c4c(c3C2C1O)OC(c1ccc(O)c(O)c1)C(O)C4 (centres undefined) [Procyanidin A2] | –
9 | 3.75 min | 7.99 min | 37.7 min | 3.84 min | 48.7 min | 10.1 min | 13.6 min | 8.13 min | 18.2 min | 13 min | 22.9 min | – | – | COc1cc(C=CC(=O)CC(=O)C=Cc2ccc(O)c(OC)c2)ccc1O [Curcumin] | –
10 | 3.47 min | 6.54 min | – | 3.72 min | 44.4 min | 9.78 min | 12.2 min | 7.19 min | 16 min | 22.6 min | 18.8 min | – | – | O=c1oc2cc(O)ccc2c2ccccc12 [Urolithin B] | –
11 | – | 1.44 min | – | 1.15 min | 5.35 min | 1.22 min | 4.98 min | 1.47 min | 2.69 min | 2.41 min | 2.36 min | 1.5 min | 1.64 min | O=C(O)c1cc(O)c(O)c(O)c1 [Gallic acid] | LC retention time [12]: 3 min; LC retention time [21]: 0.96 min; LC retention time [13]: 16.5 min; LC retention time [16]: 0.713 min; LC retention time [17]: 5.2 min; LC retention time [18]: 13.9 min; LC retention time [19]: 1.56 min
